From PubChem BioAssay (NCI)
Several values for one entry are separate records, joined by “and”; a condition that tells them apart may be missing. Identical values can stand only once.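 Cultured in 96-well plates, cells were exposed to test compound for 48 hours across five concentrations. GI50 is the concentration that inhibits growth by half. TGI denotes the concentration required for complete inhibition of growth.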

Experiments:
Test in all cases: DTP human tumour cell line panel, 48 h
[1] = tested on: NCI-H226 lung
[2] = tested on: BT-549 breast
[3] = tested on: HCT-15 colon
[4] = tested on: OVCAR-8 ovarian
[5] = tested on: DU-145 prostate
[6] = tested on: SNB-75 CNS
[7] = tested on: CAKI-1 renal
[8] = tested on: UACC-257 melanoma
[9] = tested on: SF-295 CNS
[10] = tested on: NCI-H23 lung

## O=C(CC1(O)C(=O)Nc2ccc(Cl)cc21)c1ccc(C(=O)NCC2CCC3(CC2)OOC2(CCCCC2)OO3)cc1 (stereo unspecified)
[1]
  GI50: 13.1 µM
  TGI: 41.2 µM
[2]
  GI50: 3.01 µM
  TGI: 16.1 µM
[3]
  GI50: 3.06 µM
  TGI: 17.2 µM
[4]
  GI50: 2.68 µM
  TGI: 11.6 µM
[5]
  GI50: 2 µM
  TGI: 6.49 µM
[6]
  GI50: 1.34 µM
  TGI: 3.25 µM
[7]
  GI50: 1.62 µM
  TGI: 3.27 µM
[8]
  GI50: 6.48 µM
  TGI: 24.2 µM
[9]
  GI50: 2.15 µM
  TGI: 9.31 µM
[10]
  GI50: 1.72 µM
  TGI: 21.3 µM

## O=C(/C=C/c1ccco1)Nc1ncc(Cc2cc(Cl)ccc2Cl)s1
[1]
  GI50: 0.581 µM
  TGI: > 100 µM
[2]
  GI50: 0.189 µM
[3]
  GI50: 0.0463 µM
  TGI: > 100 µM
[4]
  GI50: 0.12 µM
  TGI: > 100 µM
[5]
  GI50: 0.055 µM
  TGI: > 41.6 µM
[6]
  GI50: 0.0261 µM
  TGI: 0.433 µM
[7]
  GI50: 0.05 µM
  TGI: > 100 µM
[8]
  GI50: > 100 µM
  TGI: > 100 µM
[9]
  GI50: 0.045 µM
  TGI: > 100 µM
[10]
  GI50: 0.156 µM
  TGI: > 100 µM

## O=C(NOCCO)c1ccc2cncn2c1Nc1ccc(I)cc1F
[1]
  GI50: 4.86 µM and 7.37 µM
  TGI: > 100 µM
[2]
  GI50: > 10 µM and 11.1 µM
  TGI: > 91.7 µM
[3]
  GI50: > 2.24 µM and 1.72 µM
  TGI: > 100 µM
[4]
  GI50: > 10 µM and 19.4 µM
  TGI: > 100 µM
[5]
  GI50: > 10 µM and 19.9 µM
  TGI: > 100 µM
[6]
  GI50: > 8.85 µM and 14.3 µM
  TGI: > 100 µM
[7]
  GI50: 0.111 µM and 0.292 µM
  TGI: > 100 µM
[8]
  GI50: 0.00234 µM and < 0.01 µM
  TGI: 0.0127 µM and < 0.0141 µM
[9]
  GI50: > 56.5 µM
  TGI: > 100 µM
[10]
  GI50: 0.0189 µM and 0.0195 µM
  TGI: > 10 µM and 45.2 µM

## CSc1ccc(-c2cn3ccsc3n2)cc1
[1]
  GI50: 24.8 µM
  TGI: 98.1 µM
[2]
  GI50: > 60.5 µM
  TGI: > 100 µM
[3]
  GI50: 9.76 µM
  TGI: > 100 µM
[4]
  GI50: 15.8 µM
  TGI: > 100 µM
[5]
  GI50: 9.07 µM
  TGI: > 100 µM
[6]
  GI50: 7.76 µM
  TGI: 74 µM
[7]
  GI50: 24.9 µM
  TGI: > 100 µM
[8]
  GI50: 28.7 µM
  TGI: > 100 µM
[9]
  GI50: 19 µM
  TGI: > 86 µM
[10]
  GI50: 19.3 µM
  TGI: > 100 µM

## CCOC(=O)c1c(CN2CCCCC2)nc2ccc(Cl)cc2c1-c1ccccc1
[1]
  GI50: 20.7 µM
  TGI: 40.4 µM
[2]
  GI50: 39.5 µM
  TGI: > 100 µM
[3]
  GI50: 21.4 µM
  TGI: 47.9 µM
[4]
  GI50: 35.4 µM
  TGI: > 100 µM
[5]
  GI50: 32.5 µM
  TGI: > 100 µM
[6]
  GI50: 47.7 µM
  TGI: > 100 µM
[7]
  GI50: 24.7 µM
  TGI: 72.3 µM
[8]
  GI50: 22.4 µM
  TGI: 56.5 µM
[9]
  GI50: 31.5 µM
  TGI: 88 µM
[10]
  GI50: 24.2 µM
  TGI: 64.1 µM

## O=C1OC(c2ccccc2)=N/C1=C\c1ccccc1
[1]
  TGI: > 100 µM and 58.2 µM
[2]
  GI50: 68.9 µM and 26.8 µM
  TGI: > 100 µM
[3]
  GI50: > 100 µM and 49 µM
  TGI: > 100 µM
[4]
  TGI: > 100 µM and 73.1 µM
[5]
  TGI: > 100 µM
[6]
  TGI: > 100 µM
[7]
  TGI: > 100 µM
[8]
  TGI: 59.7 µM and > 100 µM
[9]
  TGI: > 100 µM
[10]
  TGI: > 100 µM

## CC[C@H](C)[C@H](NC(=O)CN(C)C)C(=O)N(C)[C@H](C[C@@H](OC(C)=O)c1nc(C(=O)NC23C4C5C2C2C3C4C52C(=O)OC)cs1)C(C)C (stereo partly specified)
[1]
  GI50: > 29 µM
  TGI: > 33.2 µM
[2]
  GI50: 0.431 µM
  TGI: > 20.1 µM
[3]
  GI50: 1.04 µM
  TGI: > 33.2 µM
[4]
  GI50: 0.507 µM
  TGI: > 33.2 µM
[5]
  GI50: 0.176 µM
  TGI: > 33.2 µM
[6]
  GI50: 0.119 µM
  TGI: > 33.2 µM
[7]
  GI50: 7.13 µM
  TGI: > 33.2 µM
[8]
  GI50: 4.31 µM
  TGI: > 33.2 µM
[9]
  GI50: 0.552 µM
  TGI: > 33.2 µM
[10]
  GI50: 1.42 µM
  TGI: > 33.2 µM

## C=C(CN1CCN(c2cc(C(F)(F)F)cc(C(F)(F)F)c2)CC1)c1ccc(C(=O)Nc2ccccc2N)cc1
[1]
  GI50: 9.89 µM
  TGI: > 100 µM
[2]
  GI50: 5.04 µM
  TGI: 24.6 µM
[3]
  GI50: 3.96 µM
  TGI: > 100 µM
[4]
  GI50: 9.55 µM
  TGI: > 100 µM
[5]
  GI50: 5.4 µM
  TGI: > 100 µM
[6]
  GI50: 3.44 µM
  TGI: 18.5 µM
[7]
  GI50: 2.81 µM
  TGI: 42.3 µM
[8]
  GI50: 6.57 µM
  TGI: 64.9 µM
[9]
  GI50: 7.29 µM
  TGI: 62 µM
[10]
  GI50: 14.2 µM
  TGI: 72.1 µM

## COC(=O)c1sc(-n2cnc3cc(OC)c(OC)cc32)cc1OCc1ccccc1C(F)(F)F
[1]
  GI50: > 25 µM
  TGI: > 25 µM
[2]
  GI50: > 25 µM
  TGI: > 25 µM
[3]
  GI50: > 25 µM
  TGI: > 25 µM
[4]
  GI50: 15.3 µM
  TGI: > 25 µM
[5]
  GI50: > 25 µM
  TGI: > 25 µM
[6]
  GI50: 9.07 µM
  TGI: > 19.6 µM
[7]
  GI50: > 25 µM
  TGI: > 25 µM
[8]
  GI50: > 25 µM
  TGI: > 25 µM
[9]
  GI50: > 23.6 µM
  TGI: > 25 µM
[10]
  GI50: > 25 µM
  TGI: > 25 µM

## NS(=O)(=O)c1cccc(Nc2cc(-c3ccc(F)cc3)[nH]n2)c1
[1]
  GI50: > 25 µM
  TGI: > 25 µM
[2]
  GI50: > 23.9 µM
  TGI: > 25 µM
[3]
  GI50: 19.3 µM
  TGI: > 25 µM
[4]
  GI50: 19.4 µM
  TGI: > 25 µM
[5]
  GI50: 16.2 µM
  TGI: > 25 µM
[6]
  GI50: > 15.5 µM
  TGI: > 25 µM
[7]
  GI50: 12.4 µM
  TGI: > 25 µM
[8]
  GI50: > 25 µM
  TGI: > 25 µM
[9]
  GI50: > 25 µM
  TGI: > 25 µM
[10]
  GI50: > 25 µM
  TGI: > 25 µM

## COc1cc([C@H]2OC[C@@H]3C(c4cc(OC)c5c(c4)OCO5)OC[C@H]23)cc(OC)c1OC (stereo partly specified)
[1]
  TGI: > 100 µM
[2]
  TGI: > 100 µM
[3]
  TGI: > 100 µM
[4]
  TGI: > 100 µM
[5]
  TGI: > 100 µM
[6]
  TGI: > 100 µM
[7]
  TGI: > 100 µM
[8]
  TGI: > 100 µM
[9]
  TGI: > 100 µM
[10]
  TGI: > 100 µM

## COc1cc(F)c(F)c(Nc2ccc(I)cc2F)c1NS(=O)(=O)C1(CC(O)CO)CC1 (stereo unspecified)
[1]
  GI50: 15.2 µM
  TGI: 49.2 µM
[2]
  GI50: 14.6 µM
  TGI: 35.2 µM
[3]
  GI50: 14.6 µM
  TGI: 47.4 µM
[4]
  GI50: 18.7 µM
  TGI: 61 µM
[5]
  GI50: 19.4 µM
  TGI: 54 µM
[6]
  GI50: 6.29 µM
  TGI: 49.2 µM
[7]
  GI50: 10.2 µM
  TGI: 54.4 µM
[8]
  GI50: 3.05 µM
  TGI: 19.5 µM
[9]
  GI50: 15 µM
  TGI: 32.5 µM
[10]
  GI50: 12.1 µM
  TGI: 36.4 µM
